Like-named read-outs stand apart in the source and are kept apart here.
Legend:
K-Ras G12D [1] = target: T1, K-Ras G12D (Homo sapiens, UniProt P01116, G12D); test: biochemical
K-Ras G12V [2] = target: T2, K-Ras G12V (Homo sapiens, UniProt P01116, G12V); test: biochemical
K-Ras G12D [3] = target: T1, K-Ras G12D; test: biochemical; remark: listed apart in the source
K-Ras G12V [4] = target: T2, K-Ras G12V; test: biochemical; remark: listed apart in the source
AGS cells (K-Ras G12D) [5] = test: Phospho-ERK1/2(THR202/TYR204) HTRF assay; type: cell-based; conditions: Homo sapiens, 2 hours incubation, read-out: p-ERK, IC50 AGS
Description: (§1) p-ERK (MAPK pathway) inhibition activity of each of compounds in a variety of K-Ras mutant and K-Ras WT cell lines indicated in Table 12 was evaluated. MKN-1 with K-Ras WT amplification is also a K-Ras dependent cell line.
(§2) Each of cells in culture medium was seeded in 96-well plates at density indicated in Table 16 and then put in a cell incubator to incubate overnight. The next day, the culture medium was removed and the compound diluted in assay medium was added in each well. After 2 hours incubation in a cell incubator, the assay medium in 96-well plates was removed, then 50 μL of 1× blocking reagent-supplemented lysis buffer (Cisbio) was added and the plates were incubated at 25° C. for 45 min with shaking. 10 μL of cell lysates from the 96-well plates were transferred to a 384-well plate (Greiner) containing […] HTRF® pre-mixed antibodies (Cisbio 64AERPEH). The plate was incubated 4 hours at 25° C. and then read HTRF signals on Tecan Spark multimode microplate reader. The data were analyzed using a 4-parameter logistic model to calculate IC50 values.

SW620 cells (K-Ras G12V) [6] = test: Phospho-ERK1/2(THR202/TYR204) HTRF assay; type: cell-based; conditions: Homo sapiens, SW-620, 2 hours incubation, read-out: p-ERK, IC50 SW620
Description: as §1, §2

AGS cells (K-Ras G12D) [7] = test: 2D cell growth inhibition assay (CellTiter-Glo); type: cell-based; conditions: Homo sapiens, 6 days, absolute IC50
Description: (§3) The cell growth inhibition activity of each of compounds was tested by performing cell growth inhibition assays on a variety of K-Ras mutant and K-Ras WT cell lines indicated in Table 14.
(§4) Each of cells in culture medium was plated in TC-treated 96-well plates at a density indicated in Table 14 and incubated in a cell incubator overnight. The next day, each of compounds was diluted in culture medium and added to the plates. After 6 days incubation in cell incubator, the cell viability was detected by CellTiter-Glo® Cell Viability Assay kit (Promega).

[8] = tested on: AsPC-1 cells (K-Ras G12D); test: 2D cell growth inhibition assay (CellTiter-Glo); type: cell-based; conditions: Homo sapiens, ASPC1, AsPC-1 (G12D), 6 days, absolute IC50
Description: as §3, §4

SW620 cells (K-Ras G12V) [9] = test: 2D cell growth inhibition assay (CellTiter-Glo); type: cell-based; conditions: Homo sapiens, SW-620, 6 days, absolute IC50
Description: as §3, §4

T2 sequence (P01116 1-169 isoform P01116-2 G12V): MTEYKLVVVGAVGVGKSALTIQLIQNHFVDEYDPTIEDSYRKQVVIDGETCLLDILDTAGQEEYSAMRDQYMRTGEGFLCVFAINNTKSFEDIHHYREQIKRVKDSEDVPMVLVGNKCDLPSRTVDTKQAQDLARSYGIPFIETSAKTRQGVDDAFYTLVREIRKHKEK
T1 sequence (P01116 1-169 isoform P01116-2 G12D): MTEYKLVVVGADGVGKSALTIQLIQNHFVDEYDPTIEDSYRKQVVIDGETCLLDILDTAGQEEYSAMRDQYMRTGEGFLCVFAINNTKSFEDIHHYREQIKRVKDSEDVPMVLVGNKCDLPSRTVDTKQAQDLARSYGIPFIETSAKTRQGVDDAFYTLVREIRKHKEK

Row | Structure (SMILES) | IC50 (AGS cells (K-Ras G12D) [5]) | IC50 (SW620 cells (K-Ras G12V) [6]) | IC50 (AGS cells (K-Ras G12D) [7]) | IC50 [8] | IC50 (SW620 cells (K-Ras G12V) [9]) | IC50 (K-Ras G12D [1]) | IC50 (K-Ras G12V [2]) | IC50 (K-Ras G12D [3]) | IC50 (K-Ras G12V [4])
1 | C#Cc1c(F)ccc2cc(O)cc(-c3nc4c5c(nc(OC[C@@]67CCCN6C[C@H](F)C7)nc5c3F)N3C5COCCC3(CO4)C5)c12 (some centres unmarked) [Compound 16] | – | – | – | – | – | 57.4 nM | 43.5 nM | > 1000 nM | > 1000 nM
2 | C#Cc1c(F)ccc2cc(O)cc(-c3nc4c5c(nc(OC[C@@]67CCCN6C[C@H](F)C7)nc5c3F)N3CCCOC[C@@H]3CO4)c12 [Compound 6] | 1.5 nM | 10 nM | 7.57 nM | 80.1 nM | 5.61 nM | – | – | – | –
3 | C#Cc1c(F)ccc2cc(O)cc(-c3nc4c5c(nc(OCC67CCCN6CC(F)C7)nc5c3F)N3CCOCCC3CO4)c12 (centres unmarked) [Compound 2] | 2.33 nM | 5.2 nM | 5.07 nM | 134 nM | 13.1 nM | – | – | – | –
4 | C#Cc1c(F)ccc2cc(O)cc(-c3nc4c5c(nc(OC[C@@]67CCCN6C[C@H](F)C7)nc5c3F)N3CCCOC[C@H]3CN4C)c12 [Compound 9] | 6.58 nM | 18.6 nM | 6.8 nM | 64.4 nM | 7.67 nM | – | – | – | –
5 | C#Cc1c(F)ccc2cc(O)cc(-c3nc4c5c(nc(OC[C@@]67CCCN6C[C@H](F)C7)nc5c3F)N3CCCOCC3CO4)c12 (some centres unmarked) [Compound 3] | 2.02 nM | 4.61 nM | 1.73 nM | 19.6 nM | 3.32 nM | – | – | – | –
6 | C#Cc1c(F)ccc2cc(O)cc(-c3cc4c5c(nc(OC[C@@]67CCCN6C[C@H](F)C7)nc5c3F)N3CCOCCC3CO4)c12 (some centres unmarked) [Compound 1] | 16.2 nM | 38.2 nM | 326 nM | 987 nM | 100 nM | – | – | – | –
7 | CCc1c(F)ccc2cc(O)cc(-c3cc4c5c(nc(OC[C@@]67CCCN6C[C@H](F)C7)nc5c3F)N3CCOCCC3CO4)c12 (some centres unmarked) [Compound 4] | – | – | – | – | – | 32.7 nM | 14.7 nM | > 1000 nM | > 1000 nM
8 | C#Cc1c(F)ccc2cc(O)cc(-c3nc4c5c(nc(OC[C@@]67CCCN6C[C@H](F)C7)nc5c3F)N3CCCOC[C@H]3CO4)c12 [Compound 5] | 0.525 nM | 1.03 nM | 0.466 nM | – | 0.819 nM | – | – | – | –

Further lines, with some results ahead:

Row | IC50 (AGS cells (K-Ras G12D) [5]) | IC50 (SW620 cells (K-Ras G12V) [6]) | IC50 (AGS cells (K-Ras G12D) [7]) | IC50 [8] | IC50 (SW620 cells (K-Ras G12V) [9]) | Structure (SMILES) | IC50 (K-Ras G12D [1]) | IC50 (K-Ras G12V [2]) | IC50 (K-Ras G12D [3]) | IC50 (K-Ras G12V [4])
9 | 0.691 nM | 2.01 nM | 1.23 nM | 10.2 nM | 1.49 nM | C#Cc1c(F)ccc2cc(O)cc(-c3nc4c5c(nc(OC[C@@]67CCCN6C[C@H](F)C7)nc5c3F)N3CCCCC[C@H]3CO4)c12 [Compound 20] | – | – | – | –
10 | 19.7 nM | 60.6 nM | 99 nM | 547 nM | 35.1 nM | C#Cc1c(F)ccc2cc(O)cc(-c3nc4c5c(nc(OC[C@@]67CCCN6C[C@H](F)C7)nc5c3F)N3CCCC3CO4)c12 (some centres unmarked) [Compound 21] | – | – | – | –
11 | 39.4 nM | 42.3 nM | 105 nM | 702 nM | 23.9 nM | CCc1c(F)ccc2cc(O)cc(-c3nc4c5c(nc(OC[C@@]67CCCN6C[C@H](F)C7)nc5c3F)N3CCOCC3CO4)c12 (some centres unmarked) [Compound 14] | – | – | – | –
12 | 48 nM | 128 nM | 83.4 nM | 810 nM | 91.2 nM | C#Cc1c(F)ccc2cc(O)cc(-c3nc4c5c(nc(OC[C@@]67CCCN6C[C@H](F)C7)nc5c3F)N3CCOCC3CCO4)c12 (some centres unmarked) [Compound 12] | – | – | – | –
13 | 2.32 nM | 5.13 nM | – | – | – | C#Cc1c(F)ccc2cc(O)cc(-c3nc4c5c(nc(OC[C@@]67CCCN6C[C@H](F)C7)nc5c3F)N3CCCCC3CO4)c12 (some centres unmarked) [Compound 19] | – | – | – | –
14 | 1.38 nM | 3.05 nM | 2.59 nM | 15.6 nM | 1.32 nM | C#Cc1c(F)ccc2cc(O)cc(-c3nc4c5c(nc(OC[C@@]67CCCN6C[C@H](F)C7)nc5c3F)N3CCCCCC3CO4)c12 (some centres unmarked) [Compound 22] | – | – | – | –
15 | 23 nM | 50.1 nM | – | – | – | C#Cc1c(F)ccc2cc(O)cc(-c3nc4c5c(nc(OC[C@@]67CCCN6C[C@H](F)C7)nc5c3F)N3CCCCC3CCO4)c12 (some centres unmarked) [Compound 23] | – | – | – | –
16 | 26.3 nM | 16.8 nM | 31.8 nM | 346 nM | 25 nM | C#Cc1c(F)ccc2cc(O)cc(-c3nc4c5c(nc(OC[C@@]67CCCN6C[C@H](F)C7)nc5c3F)N3CCOCC3CO4)c12 (some centres unmarked) [Compound 11] | – | – | – | –

From patent publication US20250034166A1, “POLYCYCLIC FUSED RING DERIVATIVES AND USE THEREOF” (Jacobio Pharmaceuticals Co., Ltd., priority 2021, published 2025)
